Test results published in paper PMC7177633, “Effective Cellular Transport of Ortho-Halogenated Sulfonamide Derivatives of Metformin Is Related to Improved Antiproliferative Activity and Apoptosis Induction in MCF-7 Cells” (International Journal of Molecular Sciences, 2020).
Like-named read-outs stand apart in the source and are kept apart here.

How the values were obtained:
[1] = test system: MCF-7 cells; assay: Intracellular GSH and GSSG, MCF-7; format: cell-based, human; conditions: MCF-7, 24 h, reference agents: Ascorbic acid 200 µM, AAPH 10 mM
Method: (§1) The quantitative determination of glutathione and glutathione disulfide was performed using the enzymatic recycling method according to the protocol of Rahman. The cells were seeded at a density of 2 × 10^5 per well in a 6-well plate and cultured for 48 h. Then, the cells were treated with tested compounds 1, 4 and 7 at their respective ¼ and ½ IC50 values for MCF-7 and MDA-MB-231 cells. Additionally, controls with pure medium, AAPH (2,2′-Azobis(2-methylpropionamidine) dihydro-chloride, Sigma Aldrich, St. Louis, MO, USA) and ascorbic acid (Polish Chemical Reagents, Poland) were performed. The cells were incubated with compounds for another 24 h, then washed twice with 2 mL of cold, Ca^2+-/Mg^2+-free PBS (Biomed Lublin, Lublin, Poland). The cells were harvested using 1-mL accutase (Sigma Aldrich, St. Louis, MO, USA), and the wells were washed with 1 mL of cold growth medium. The cells were transferred to prechilled 2.0-mL Eppendorf tubes and centrifuged at 1000× g for 5 min at 4 °C. The supernatant was discarded, the pellets were resuspended in 1 mL of cold PBS, the number of cells was determined in each sample and the cellular suspension was centrifuged again. PBS was discarded, and the pellets were stored covered with 30-µL PBS at –70 °C. The following day, the cells were suspended in 0.5 mL of ice-cold extraction buffer (0.1% Triton-X (Polish Chemical Reagents, Gliwice, Poland) and 0.6% sulfosalicylic acid (Sigma Aldrich) in a potassium phosphate buffer with EDTA (Sigma Aldrich)) and sonicated in icy water for 3 min with vortexing every 30 s. The cells were frozen once again at −80 °C, defrosted on ice and frozen once again. Following the second freeze–thaw cycle, the cells were centrifuged at 1500× g for 5 min at 4 °C, and then, immediately, the supernatant was transferred to prechilled Eppendorf tubes. The samples were divided into two parts: one was used to measure GSH, and the other one was derivatized by an addition of 4 µL of 2-vinylpyridine (diluted 1:10 with phosphate buffer) (Sigma Aldrich, St. Louis, MO, USA) to determine the GSSG content.
(§2) GSH measurements included an addition of 20 µL of the tested sample, blank or GSH standard, 120 µL of the mixture of an equal volume of DTNB solution (2 mg dissolved in 3 mL of phosphate buffer, Sigma Aldrich) and glutathione reductase (10 U in 3 mL of phosphate buffer, Sigma Aldrich, St. Louis, MO, USA) and 30 s of incubation to allow the conversion of GSSG to GSH. The final step included the addition of 60 µL of β-NADPH (2 mg dissolved in 3 mL of phosphate buffer, Sigma Aldrich). The absorbance was read immediately at 415 nm in a microplate reader (Bio-Rad), and the measurements were taken every 30 s for 2 min (6 readings in total). The amount of GSH was calculated on the basis of the calibration curve prepared using GSH (Sigma Aldrich, St. Louis, MO, USA) at concentrations ranging from 0.040 to 2.6 nmol/mL.
(§3) The quantification of GSSG in the test samples was performed according to the same procedure as GSH. The samples treated with 2-VP were incubated for one hour at room temperature, and then, 20 µL of the tested sample was analyzed using the same reagents which were applied in the GSH measurements. The amount of GSSG was calculated on the basis of the calibration curve, prepared using GSSG (Sigma Aldrich) at concentrations of 0.040–2.6 nmol/mL. The results are presented as mean ± SD, n = 6–8 and expressed as nmol per […].

[2] = test system: MDA-MB-231 cells; assay: Intracellular GSH and GSSG, MDA-MB-231; format: cell-based, human; conditions: MDA-MB-231, 24 h, reference agents: Ascorbic acid 200 µM, AAPH 10 mM
Method: as §1, §2, §3

[3] = test system: MDA-MB-231 cells; assay: Cell viability WST-1 assay, MDA-MB-231; format: cell-based; conditions: Homo sapiens, MDA-MB-231, 24 h, 3000 µmol/L, WST-1, 24 h; read-out: percentage of viability of MDA-MB-231 cells
Method: (§4) The viability of MCF-7 and MDA-MB-231 cells was determined using a colorimetric WST-1 assay (Takara, Takara Bio Europe, Saint-Germain-en-Laye, France). Both cell lines were seeded at a density of 1 × 10^4 per well on 96-well plates and were cultured for 24 h to obtain 70% confluence. The following day, the cells were treated with various concentrations of compounds 1–9 diluted in the cell culture medium ([…]). The cells were incubated with tested compounds or pure medium (control) for 24 h (37 °C, 5% CO2). Afterwards, the cells were washed with 100 μL of culture medium, and then, the reagent dissolved in the medium was added (100 μL). The plates were incubated at the standard condition for 1.5 h, and the absorbance was read at 450 nm using a microplate reader (iMARK, Bio-Rad, Bio-Rad Laboratories Inc., Hercules, CA, USA). […] The results of samples treated with the test compounds were expressed as a percentage of the control samples. The data were presented as mean ± standard deviation (SD), n = 8. IC50 values (the concentration of the tested compound that inhibited cell growth by 50%) were calculated using a concentration-response curve (GraphPad Prism, Software, San Diego, CA, USA).
(§5) The concentrations contributing to the 50% of cell growth inhibition (IC50) were calculated using nonlinear regression analysis (fitting the curve to log (concentration) vs. cellular response).

[4] = test system: MCF-7 cells; assay: Cellular uptake of metformin sulfonamides in MCF-7 cells (HPLC); format: in vitro ADME, human
Method: (§6) The uptake of metformin sulfonamides (1–9) in MCF-7 and MDA-MB-231 cells was studied by incubation of the cells with 10−3000 μmol/L of compounds in 250 μL of prewarmed HBSS buffer at 37 °C for 10 min. Subsequently, the cells were then washed three times with 500 μL of ice-cold HBSS and lysed with 250 μL of 0.1-M NaOH. The samples were collected, centrifuged (5 min, 1400 rpm) and the supernatants were analyzed by the HPLC method. The concentration of each compound in the cells was calculated on the basis of the standard curve prepared by spiking known amounts of every compound on the cell layers in 250 μL of 0.1-M NaOH.
(§7) The concentration of the studied sulfonamides (1–9) was assessed using the HPLC system, consisting of an Agilent 1100 binary pump (Agilent Technologies Inc., Wilmington, DE, USA), an 1100 micro-vacuum degasser, an HP 1050 autosampler and an HP 1050 variable wavelength detector (operated at 235 nm). The chromatographic separations of compounds 1–9 were conducted on an Agilent Zorbax SB-C18 analytical column (4.6 mm × 150 mm, 5 μm) using an isocratic elution of water containing 0.1% formic acid (pH ca. 3.0) and acetonitrile containing 0.1% formic acid with a changing ratio, depending on the compound. The analyses were conducted at room temperature (RT). The detailed procedure of chromatographic analysis was described in our previous paper. The studies were conducted in quadruplicates.
(§8) The protein concentrations in representative wells of each plate were assessed using a Bio-Rad protein assay according to the Bradford method (EnVision, PerkinElmer, Inc., Waltham, MA, USA).

[5] = test system: MDA-MB-231 cells; assay: Uptake in the presence of OCT and MATE inhibitors, MDA-MB-231 cells; format: in vitro ADME, human; conditions: summary from uptake with inhibitors
Method: (§9) The uptake of sulfonamide derivatives of metformin (1–9) in MCF-7 and MDA-MB-231 cells was studied also in the presence of disopyramide, cimetidine (OCT1 and 3 inhibitors), lopinavir (OCT and PMAT inhibitor) and methenamine (MATE and OCT2 inhibitors). The cells were incubated (37 °C, 10 min) with compounds 1–9 at concentrations of 400 and 800 μmol/L and inhibitors (disopyramide, cimetidine, lopinavir or methenamine) in 250 μL of prewarmed HBSS buffer. The protocol of determination of the compound concentration was as described above.

[6] = test system: MCF-7 cells; assay: Uptake in the presence of OCT and MATE inhibitors, MCF-7 cells; format: in vitro ADME, human; conditions: for interactions with OCT, PMAT and MATE1 transporters, MCF-7: summary from uptake with inhibitors
Method: as §9

[7] = test system: MDA-MB-231 cells; assay: Cellular uptake of metformin sulfonamides in MDA-MB-231 cells (HPLC); format: in vitro ADME, human
Method: as §6, §7, §8

[8] = test system: OCTs; assay: Inhibition of [14C]choline uptake in MCF-7 cells (competitive inhibition assay); format: cell-based, human; conditions: mean ± SD (n = 3)
Method: (§10) The following day, after removal of the culture medium, the cells were carefully washed with prewarmed HBSS (Hanks’ balanced salt solution) containing 125 mM NaCl, 4.8 mM KCl, 1.2 mM MgSO4, 1.2 mM KH2PO4, 1.3 mM CaCl2, 5.6 mM glucose and 25 mM HEPES (pH 7.4). […] Then, the cells were washed three times with ice-cold HBSS (500 μL) and were lysed with 250 μL of 0.1-M NaOH in the ice bath, and the lysate was mixed with 1.0 mL of an emulsifier safe cocktail (PerkinElmer, Waltham, MA, USA). The radioactivity was measured by liquid scintillation counting (MicroBeta^2 counter, PerkinElmer, Waltham, MA, USA). The studies were carried out with the use of at least three replicates from the same cell passage.

[9] = test system: MCF-7 cells; assay: Cell viability WST-1 assay, MCF-7; format: cell-based; conditions: Homo sapiens, MCF7; WST-1, 24 h, mean ± SD (n = 6–8); read-out: IC50 inhibition of MCF-7 cells' viability
Method: as §4, §5

[10] = test system: OCTs; assay: Inhibition of [14C]choline uptake in MDA-MB-231 cells (competitive inhibition assay); format: cell-based, human; conditions: mean ± SD (n = 3)
Method: as §10

[11] = Eadie-Hofstee analysis, transporter I
[12] = Eadie-Hofstee analysis, transporter I, read-out: Km, transporter I, MCF-7
[13] = Eadie-Hofstee analysis, transporter I, read-out: Km, transporter I, MDA-MB-231
[14] = Eadie-Hofstee analysis, transporter II
[15] = Eadie-Hofstee analysis, transporter II, read-out: Km, transporter II, MDA-MB-231
[16] = compound and inhibitor 400 and 800 µmol/L, 10 min, 37 °C
[17] = 800 μmol/L, 10 min incubation, 37 °C

interactions with OCT, PMAT and MATE1 transporters, MDA-MB-231 [5]	interactions with OCT, PMAT and MATE1 transporters, MCF-7 [6]	IC50 [8] [µM]	IC50 [9] [µM]	IC50 [10] [µM]	SMILES	GSH [1] [nmol/1 mln Cells]	GSH:GSSG Ratio [1]	GSSG [1] [nmol/1 mln Cells]	GSH [2] [nmol/1 mln Cells]	GSH:GSSG Ratio [2]	GSSG [2] [nmol/1 mln Cells]	viability at 3000 µM [3] [%]	Vmax, transporter I, MCF-7 [4, 11] [nmol/min/mg]	Km [4, 12] [µM]	Vmax, transporter I, MDA-MB-231 [7, 11] [nmol/min/mg]	Km [7, 13] [µM]	Vmax, transporter II, MDA-MB-231 [7, 14] [nmol/min/mg]	Km [7, 15] [µM]	further results
–	–	–	–	–	CC(C)(N=NC(C)(C)C(=N)N)C(=N)N.Cl.Cl [AAPH, 2,2′-Azobis(2-methylpropionamidine) dihydrochloride, reference compound]	117.6 ± 7.8	8.9	12.8 ± 0.5	102.7 ± 3.2	6.9	14.3 ± 1.9	–	–	–	–	–	–	–	–
OCT1, OCT3	OCT1	7195 ± 5.3	171 ± 13.6	2284 ± 14	CN(C)C(=N)N=C(N)NS(=O)(=O)c1cccc(F)c1 [Compound 8]	–	–	–	–	–	–	~60	0.830 ± 0.171	2840 ± 778	0.049 ± 0.025	1240 ± 1310	0.045 ± 0.021	3380 ± 2130	uptake into MCF-7 cells at higher concentrations ([4]; concentrations above 1600 μmol/L): 8–10 nmol/min/mg of protein; Vmax MDA-231 cells (Michaelis Menten curves) ([7]; Michaelis-Menten curve): 0.126 ± 0.032 nmol/min/mg; Km ([7]; Michaelis-Menten curve, read-out: Km MDA-231 cells (Michaelis Menten curves)): 7400 ± 510 µM; transport efficacy (Vmax/Km) in MCF-7 relative to MDA-MB-231 ([7]; fold lower in MDA-MB-231 than in MCF-7): approximately 22 fold
OCT1, OCT3	OCT1, MATE1, PMAT	888 ± 11.4	106 ± 12.3	593 ± 15	CN(C)C(=N)N=C(N)NS(=O)(=O)c1cccc(Br)c1 [Compound 5]	–	–	–	–	–	–	~60	1.635 ± 0.21	3620 ± 619	0.038 ± 0.004	468 ± 109	0.098 ± 0.011	1070 ± 204	Vmax, transporter II, MCF-7 [4, 14]: 2.167 ± 0.196 nmol/min/mg; Km ([4]; Eadie-Hofstee analysis, transporter II, read-out: Km, transporter II, MCF-7): 6850 ± 713 µM; Vmax MCF-7 (Michaelis Menten curves) ([4]; Michaelis-Menten curve): 1.87 ± 0.95 nmol/min/mg; Km ([4]; Michaelis-Menten curve, read-out: Km MCF-7 (Michaelis Menten curves)): 4940 ± 1340 µM; uptake in the presence of disopyramide, MCF-7 [6, 16]: significantly reduced; uptake in the presence of lopinavir, MCF-7 [6, 16]: increased; uptake in the presence of methenamine, MCF-7 [6, 16]: increased
OCT1, OCT3	PMAT	1057 ± 7.5	422 ± 32.8	1380 ± 14	CN(C)C(=N)N=C(N)NS(=O)(=O)c1ccc(F)cc1 [Compound 9]	–	–	–	–	–	–	~60	–	–	0.097 ± 0.015	1880 ± 429	0.053 ± 0.012	2220 ± 618	uptake into MCF-7 cells [4, 17]: 0.357 ± 0.112 nmol/min/mg protein; uptake into MDA-MB-231 cells [7, 17]: 0.021 ± 0.002 nmol/min/mg protein
–	–	–	–	–	O=C1O[C@H]([C@@H](O)CO)C(O)=C1O [Ascorbic acid, reference compound]	153.1 ± 5.4	25.3	6.0 ± 0.4	249.6 ± 20.8	13.9	17.9 ± 1.5	–	–	–	–	–	–	–	–
